One test concerns Oryctolagus cuniculus. Nature of the test: Protection against sodium arachidonate induced sudden death in rabbit, 1 hr after peroral administration. Format: functional. The conditions noted are these: po.
Test [1] deals with T1, Thromboxane-A synthase (Rattus norvegicus) (UniProt P49430).
T1 sequence (whole entry): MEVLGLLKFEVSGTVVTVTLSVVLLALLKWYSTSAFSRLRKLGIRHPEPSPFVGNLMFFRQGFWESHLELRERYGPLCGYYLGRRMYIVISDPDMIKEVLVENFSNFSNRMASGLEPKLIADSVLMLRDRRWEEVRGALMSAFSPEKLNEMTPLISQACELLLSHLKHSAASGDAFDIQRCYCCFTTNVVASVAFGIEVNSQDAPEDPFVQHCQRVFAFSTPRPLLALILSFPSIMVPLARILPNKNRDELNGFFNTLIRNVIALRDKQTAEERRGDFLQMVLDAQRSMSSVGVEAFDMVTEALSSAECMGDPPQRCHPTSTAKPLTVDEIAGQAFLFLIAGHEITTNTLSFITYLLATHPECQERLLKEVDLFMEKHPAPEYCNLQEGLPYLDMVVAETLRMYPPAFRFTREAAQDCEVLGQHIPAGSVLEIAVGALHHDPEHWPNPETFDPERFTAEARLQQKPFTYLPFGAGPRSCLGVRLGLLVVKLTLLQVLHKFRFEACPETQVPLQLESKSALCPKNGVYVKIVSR
The note with it: Serum.

Test [2] has as its target T1, Thromboxane-A synthase (Rattus norvegicus). Briefly: Inhibition of rat serum thromboxane A2 synthetase after 2 hr of oral administration of compound.
A further test addresses T2, Thromboxane-A synthase (Homo sapiens, UniProt P24557).
T2 sequence (P24557 whole entry): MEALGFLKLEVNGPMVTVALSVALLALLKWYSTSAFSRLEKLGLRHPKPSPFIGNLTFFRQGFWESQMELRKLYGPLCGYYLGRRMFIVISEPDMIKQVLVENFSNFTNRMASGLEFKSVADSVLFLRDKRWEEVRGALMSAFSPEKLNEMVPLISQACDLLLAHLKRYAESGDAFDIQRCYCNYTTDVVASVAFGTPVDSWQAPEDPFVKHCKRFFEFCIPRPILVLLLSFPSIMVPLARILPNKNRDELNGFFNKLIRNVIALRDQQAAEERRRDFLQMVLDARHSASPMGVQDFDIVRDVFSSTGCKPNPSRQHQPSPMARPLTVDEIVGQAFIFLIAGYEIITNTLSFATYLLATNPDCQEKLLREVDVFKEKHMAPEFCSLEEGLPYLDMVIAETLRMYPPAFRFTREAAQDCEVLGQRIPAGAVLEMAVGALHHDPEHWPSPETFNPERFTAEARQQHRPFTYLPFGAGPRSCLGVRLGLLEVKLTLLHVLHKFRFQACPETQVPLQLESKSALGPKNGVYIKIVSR
Nature of the test: Inhibition of platelet microsomal thromboxane A synthetase in humans.

Test [3] has as its target Thromboxane-A synthase (Oryctolagus cuniculus). Nature of the test: Inhibition of thromboxane A2 synthetase.

The text below walks through data of ChEMBL document CHEMBL1124489, “Synthesis and thromboxane synthetase inhibitory activity of di- or tetrahydrobenzo[b]thiophenecarboxylic acid derivatives” (J Med Chem, 1989).

The term ED50 denotes the dose at which the effect has come halfway, by size or by number of responders. A high value points to weaker potency. In the test on Oryctolagus cuniculus, `O=C(O)c1ccc(OCCn2ccnc2)cc1` [DAZOXIBEN] registered an ED50 of 3.17 µmol/kg. The compound further showed an ID50 in test [1] of 0.468 µmol/kg.

The IC50 is the concentration that inhibits the measured activity by half. Low values mean inhibition by little substance, high ones a need for much substance. As for `O=C(O)C1=Cc2sc(Cn3ccnc3)cc2CC1` [IMITRODAST], the ID50 in test [2] amounted to 0.064 µmol/kg. At Thromboxane-A synthase, the IC50 is 6 nM. Besides, the ED50 in the test with Oryctolagus cuniculus worked out at 0.43 µmol/kg.

The compound `O=C(O)C1CCc2cc(Cn3ccnc3)sc2C1` (centres undefined) yielded an ID50 in test [2] of 0.027 µmol/kg. For the same compound, the IC50 in test [3] was 26 nM; against Thromboxane-A synthase, 20 nM. Besides, in the test on Oryctolagus cuniculus, the ED50 came out at 0.9 µmol/kg.
